We go through 23 molecules from patent US5232917A, “Methods, compositions, and compounds for allosteric modulation of the GABA receptor by members of the androstane and pregnane series” (priority 1991, dated 1993).

Where two headings read alike, the source gives them in different places. Some results are limits rather than exact numbers.

In test [1] the test system is GABA receptor complex (36Cl uptake, cerebral cortical synaptoneurosomes). Put plainly: GABA-stimulated 36Cl uptake in rat cerebral cortical synaptoneurosomes. In kind it is biochemical, rat (male Sprague-Dawley). As to the method: In addition, the ability of the BZ clonazepam to modulate ^36 Cl uptake in the presence or absence of 5α-pregnandiol was evaluated.
The homogenate was diluted to a final volume of 40 mL with buffer and filtered through three layers of Nylon mesh (160 μm).
Aliquots of membrane preparation (200 μL) were preincubated at 30° C. for 10 min. The interaction was initiated by the simultaneous addition of drugs/steroids and 0.2 mL ^36 Cl (New England Nuclear Boston, Mass., 0.55 mCi/mmol, 0.8 μCi/ml) resulting in a total incubation volume of 0.4 mL. Steroids and test drugs were solubilized in dimethylsufoxide (DMSO) and added to the reaction mixture in 2 μL aliquots. An equal volume of vehicle was always included in the control reaction mixture. The mixture was gently mixed and ^36 Cl uptake terminated after 5 sec by the of 5 mL of ice cold buffer containing 100 μM picrotoxin (Sigma Chem Co.) followed immediately by rapid filtration through glass fiber filters (Whatman GF/C) under vacuum. The filters were washed twice with 5 mL of ice-cold buffer and the filter-bound radioactivity quantitated by liquid scintillation spectrophotometry. Specific uptake was calculated by subtracting the amount of ^36 Cl bound to the filters in the absence of synaptoneurosomes from that observed in their presence. Percent enhancement represents percent increase in uptake over that of basal ^36 Cl uptake. Statistical comparisons utilized the analysis of variance (ANOVA).

Test [2] relates to metrazol-induced seizures. Put plainly: Time course of antimetrazol activity of prodrugs. The conditions noted are these: 60 mg/kg ip; for responders at 60 mg/kg: Mus musculus. It counts as in vivo, mice (CF1).
Test [3] relates to GABA receptor-chloride ionophore complex (GR complex). Description: [35S]TBPS binding modulation assay. The note with it: for Max. Inhib., maximal % of specifically bound [35S]-TBPS displaced: saturating concentrations of test compound.
The next test deals with T1, progesterone receptor (Bos taurus, UniProt F1N712).
T1 construct: from tissue; host or cells: bovine uterus cytosol
T1 sequence (F1N712 1-914): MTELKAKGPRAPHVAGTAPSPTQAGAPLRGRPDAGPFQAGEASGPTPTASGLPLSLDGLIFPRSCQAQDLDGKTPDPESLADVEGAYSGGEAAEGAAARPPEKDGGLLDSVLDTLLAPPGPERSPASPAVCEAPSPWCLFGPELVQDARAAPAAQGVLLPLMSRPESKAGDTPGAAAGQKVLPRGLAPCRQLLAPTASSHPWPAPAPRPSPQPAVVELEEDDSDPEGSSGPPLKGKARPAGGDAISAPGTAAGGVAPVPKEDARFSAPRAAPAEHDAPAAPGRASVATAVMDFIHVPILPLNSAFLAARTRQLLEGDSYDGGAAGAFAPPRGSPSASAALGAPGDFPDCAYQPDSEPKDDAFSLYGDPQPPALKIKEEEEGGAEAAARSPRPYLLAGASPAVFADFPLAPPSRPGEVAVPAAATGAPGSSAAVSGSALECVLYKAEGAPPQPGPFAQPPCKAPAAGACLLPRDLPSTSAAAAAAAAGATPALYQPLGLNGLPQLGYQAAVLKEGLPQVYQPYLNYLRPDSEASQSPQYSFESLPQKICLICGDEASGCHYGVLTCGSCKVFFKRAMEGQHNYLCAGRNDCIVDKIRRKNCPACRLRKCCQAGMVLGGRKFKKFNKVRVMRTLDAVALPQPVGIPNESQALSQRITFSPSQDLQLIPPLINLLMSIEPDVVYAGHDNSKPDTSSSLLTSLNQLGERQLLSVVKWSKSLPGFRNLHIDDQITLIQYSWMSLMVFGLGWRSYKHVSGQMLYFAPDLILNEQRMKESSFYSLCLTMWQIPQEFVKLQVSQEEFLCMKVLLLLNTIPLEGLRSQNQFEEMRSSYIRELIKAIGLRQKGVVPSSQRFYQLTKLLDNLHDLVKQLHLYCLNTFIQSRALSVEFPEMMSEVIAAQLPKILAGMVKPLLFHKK
Put plainly: Inhibition of 3H-progesterone binding to bovine uteral progesterone receptors. As to the method: The hormonal activity of drugs described herein was further studied through testing their potential estrogenic, progestinic, mineralocorticoid and glucocorticoid activities. These activities were analyzed by monitoring the ability of the drugs to inhibit binding of the steroid hormones to their respective hormone receptors.
For the data presented in Table 9, bovine uteri cytosol was isolated as they were for Table 7 and used for following binding to progesterone receptors by following the inhibition of ^3 H-progesterone, the natural ligand.

Where [4] appears, read: 1 hr, read-out: Antimetrazol activity, % of animals protected, 1 hr.
[5] abbreviates: 4 hr, read-out: Antimetrazol activity, % of animals protected, 4 hr.
[6] abbreviates: read-out: % of inhibition of 3H-progesterone binding, A, competitor 10^-5 M, 0.15 nM 3H-progesterone.
[7] abbreviates: read-out: % of inhibition of 3H-progesterone binding, A, competitor 10^-6 M, 0.15 nM 3H-progesterone.
The mark [8] stands for this setting: read-out: % of inhibition of 3H-progesterone binding, B, competitor 10^-5 M, 0.25 nM 3H-progesterone.
[9] abbreviates: read-out: % of inhibition of 3H-progesterone binding, B, competitor 10^-6 M, 0.25 nM 3H-progesterone.
Where [10] appears, read: read-out: IC50, inhibition of [35S]-TBPS binding, +5 μM GABA, in the presence of 5 μM GABA.
Setting [11] is: read-out: IC50, inhibition of [35S]-TBPS binding, No GABA, washed synaptoneurosomes, no GABA added.

As to `CN1CCc2cc3c(cc2[C@H]1[C@@H]1OC(=O)c2c1ccc1c2OCO1)OCO3` [(+)bicuculline, reference compound], the “block of the stimulatory effect of GABA on 36Cl uptake” value in test [1] ((+)bicuculline 10 μM, GABA 25 μM) is given as “completely block”. In test [1] (GABA (25 μM) + (+)bicuculline (10 μM)), the “% enhancement of basal 36Cl uptake” value worked out at 3 ± 2%.
As for `CC(=O)[C@H]1CC[C@H]2[C@@H]3CC[C@H]4C[C@H](OC(=O)c5ccccc5)CC[C@]4(C)[C@H]3CC[C@]12C`, the responders at 60 mg/kg in test [2] (setting [4]) was found to be 33%.
In the case of `CC(=O)[C@H]1CC[C@H]2[C@@H]3CC[C@H]4C[C@H](OC(=O)c5ccc(Cl)cc5)CC[C@]4(C)[C@H]3CC[C@]12C`, the figures for the responders at 60 mg/kg in test [2] (setting [4]) and in test [2] (setting [5]) were 50% and under 16%, respectively.
As to `CCCCC(=O)O[C@@H]1CC[C@@]2(C)[C@@H](CC[C@@H]3[C@@H]2CC[C@]2(C)[C@@H](C(C)=O)CC[C@@H]32)C1`, the “Antimetrazol activity, % of animals protected, 20 hr” value (shortened to “Antimetrazol activity, %”) in test [2] is reported as 33%. Further, the responders at 60 mg/kg in test [2] (setting [4]) and in test [2] (setting [5]) was 33% throughout.
For `CCC(=O)O[C@@H]1CC[C@@]2(C)[C@@H](CC[C@@H]3[C@@H]2CC[C@]2(C)[C@@H](C(C)=O)CC[C@@H]32)C1`, the figures for the responders at 60 mg/kg in test [2] (setting [4]) and in test [2] (setting [5]) were 75% and 0%, respectively.
As to `NCCCC(=O)O` [GABA, gamma-aminobutyric acid], in test [3] (0.5-3.0 μM bicuculline, FIGS. 1A, 1B), the “shift of [35S]TBPS dose-response curve by (+)bicuculline” value is on record as “classical parallel shift”. Further, in test [1] (GABA (25 μM) alone), the “% enhancement of basal 36Cl uptake” value came to 133 ± 6%.
Turning to `CCCC(=O)O[C@@H]1CC[C@@]2(C)[C@@H](CC[C@@H]3[C@@H]2CC[C@]2(C)[C@@H](C(C)=O)CC[C@@H]32)C1`, the responders at 60 mg/kg is 75% in test [2] (setting [4]) and 13% in test [2] (setting [5]).
Consider `CC(=O)[C@H]1CC[C@H]2[C@@H]3CC[C@@H]4C[C@H](O)CC[C@]4(C)[C@H]3CC[C@]12C` [5β-pregnan-3α,ol-20-one], for which the results for the inhibition at 10 µM at progesterone receptor (setting [6]) and on progesterone receptor (setting [8]) were 17% and 13%, respectively. Further, the inhibition at 1 µM was determined as 9% at progesterone receptor (setting [7]) and 1% on progesterone receptor (setting [9]).
`CC(=O)[C@H]1CC[C@H]2[C@@H]3CC[C@H]4C[C@H](OC(=O)C5CCC5)CC[C@]4(C)[C@H]3CC[C@]12C`: the “Antimetrazol activity, %” value in test [2] was determined as 17%. Also, the responders at 60 mg/kg in test [2] (setting [4]) was determined as 17%.
Regarding `CC(=O)[C@H]1CC[C@H]2[C@@H]3CC[C@H]4C[C@H](OC(=O)C5=CN(C)C=CC5)CC[C@]4(C)[C@H]3CC[C@]12C`, the “Antimetrazol activity, %” value in test [2] amounted to 63%. The responders at 60 mg/kg in test [2] (setting [4]) and in test [2] (setting [5]) was 0% throughout.
On to `CC(=O)OCC(=O)[C@H]1CC[C@H]2[C@@H]3CC[C@H]4C[C@H](OC(=O)C(C)C)CC[C@]4(C)[C@H]3CC[C@]12C`, for which the responders at 60 mg/kg in test [2] (setting [4]) stood at 63%; in test [2] (setting [5]), 13%.
With `CC(=O)OCC(=O)[C@H]1CC[C@H]2[C@@H]3CC[C@H]4C[C@H](O)CC[C@]4(C)[C@H]3CC[C@]12C`, the responders at 60 mg/kg in test [2] (setting [4]) was 50%; in test [2] (setting [5]), 0%.
Turning to `CC(=O)[C@H]1CC[C@H]2[C@@H]3CC[C@H]4C[C@H](OC(=O)c5cccnc5)CC[C@]4(C)[C@H]3CC[C@]12C`, the “Antimetrazol activity, %” value in test [2] is 50%.
As for `C[C@]12CC[C@@H](O)C[C@@H]1CC[C@H]1[C@@H]3CC[C@H](C(=O)CO)[C@@]3(C)CC(=O)[C@@H]12` [5α-PREGNAN-3α,21-DIOL-11,20-DIONE, 5α-PREGNAN-3α,21-DIOL- 11,20-DIONE], the IC50 in test [3] (setting [10]) is 5.5 µM; in test [3] (setting [11]) it was over 100 µM.
For `CC(=O)[C@H]1CC[C@H]2[C@@H]3CC[C@H]4C[C@H](OC(=O)C(C)C)CC[C@]4(C)[C@H]3CC[C@]12C`, the responders at 60 mg/kg in test [2] (setting [4]) worked out at 75%; in test [2] (setting [5]), 29%.
Turning to `C[C@]12CC[C@@H](O)C[C@@H]1CC[C@@H]1[C@@H]2CC[C@]2(C)[C@@H](C(=O)O)CC[C@@H]12` [3α-HYDROXY-5α-ANDROSTAN-17β-CARBOXYLATE, 3α-Hydroxy-5α-androstane-17β-carboxylic acid], the concentration for half-maximal inhibition (IC50) in test [3] (setting [10]) was 2.68 µM. Further, the “Max. Inhib., maximal % of specifically bound [35S]-TBPS displaced” value in test [3] is recorded as 63%.
On to `CC(C)(O)[C@H]1CC[C@H]2[C@@H]3CC[C@H]4C[C@](C)(O)CC[C@]4(C)[C@H]3CC[C@]12C` [3α,20-dihydroxy-3β,20-dimethyl-5α-pregnane], for which, in test [3], the “Max. Inhib., maximal % of specifically bound [35S]-TBPS displaced” value turned out to be 50%. In addition, the inhibition at 10 µM on progesterone receptor (setting [6]) came out at 5%; at progesterone receptor (setting [8]), 0%. Moreover, the inhibition at 1 µM on progesterone receptor (setting [7]) is 8%; at progesterone receptor (setting [9]) it was 0%.
On to `CC(=O)O[C@@H]1CC[C@@]2(C)[C@@H](CC[C@@H]3[C@@H]2CC[C@]2(C)[C@@H](C(C)=O)CC[C@@H]32)C1` [CH3], for which, in test [2] (setting [4]), the responders at 60 mg/kg came to 25%.
Regarding `CC(=O)C1=CC[C@H]2[C@@H]3CC[C@H]4C[C@H](O)CC[C@]4(C)[C@H]3CC[C@]12C` [3α-HYDROXY-5α-PREGN-16-EN-20-ONE], the IC50 in test [3] (setting [10]) came out at 0.161 µM. Moreover, the “Max. Inhib., maximal % of specifically bound [35S]-TBPS displaced” value in test [3] came out at 100%.
Turning to `COc1ccc(C(=O)O[C@@H]2CC[C@@]3(C)[C@@H](CC[C@@H]4[C@@H]3CC[C@]3(C)[C@@H](C(C)=O)CC[C@@H]43)C2)cc1`, the responders at 60 mg/kg in test [2] (setting [4]) and in test [2] (setting [5]) was 17% throughout.
Turning to `C[C@]12CCC(=O)C[C@@H]1CC[C@@H]1[C@@H]2CC[C@]2(C)[C@@H](O)CC[C@@H]12` [5α-ANDROSTAN-17β-OL-3-ONE, 5α-ANDROSTAN-17β-OL-3- ONE, reference compound], the IC50 is 18 µM in test [3] (setting [10]) and over 100 µM in test [3] (setting [11]). In addition, in test [3], the “Max. Inhib., maximal % of specifically bound [35S]-TBPS displaced” value turned out to be 52%.
Consider `CC(=O)OCC(=O)[C@H]1CC[C@H]2[C@@H]3CC[C@H]4C[C@H](OC(C)=O)CC[C@]4(C)[C@H]3CC[C@]12C`, for which the responders at 60 mg/kg in test [2] (setting [4]) and in test [2] (setting [5]) was 0% each time.
For `C[C@H](O)[C@H]1CC[C@H]2[C@@H]3CC[C@@H]4C[C@H](O)CC[C@]4(C)[C@H]3CC[C@]12C` [5β-pregnan-3α,20α-diol], the inhibition at 10 µM at progesterone receptor (setting [6]) and at progesterone receptor (setting [8]) was 1% each time.

A word on the inhibition: it is the share of the control response that was lost under treatment. The IC50 is the concentration that inhibits the measured activity by half.
